Assay [1] has as its system Raji cells / rabbit dorsal femoral condyle explants. The assay is described as follows: Adherence of calcein-labeled Raji cells to rabbit dorsal femoral condyle explants. The conditions noted are these: cells incubated with 10 μM compound in PBS, 30 min; 475/535 nm; FIG. 6B. It is filed as cell-based. Here is the method: Raji cells were labeled with calcein for 30 min, washed with PBS, and incubated with Compound 4 or Compound 20 (10 μM in PBS) or with PBS for 30 min. Cells were washed in PBS. Rabbit dorsal femoral condyle explants were then incubated for 30 min with (1) the PBS-incubated, calcein-labeled Raji cells or (2) the calcein-labeled Raji cells that had been incubated with 10 μM Compound 4 or Compound 20. Explants were washed twice with excess PBS, and the 475/535 nm filter set on the Molecular Imaging Gel Logic system was used to detect the binding of […] to the explants by detecting the calcein.

Assay [2] concerns hMSCs. The assay is described as follows: Differentiation of human MSCs to chondrocytes in pellet culture (aggrecan stain). The conditions noted are these: for ECM area (Aggrecan stain): 10 μM, 21 days, Differentiation Medium +, aggrecan ratio relative to cell number; for Differentiation of hMSCs to chondrocytes (in words): compound and differentiation medium, with or without priming, relative to control without differentiation medium. The class given is cell-based. The procedure:
hMSCs (Lonza, Cat No PT-2501) were cultured in complete mesenchymal stem cell culture medium (Lonza, Cat No PT-3238). For differentiation experiments, complete mesenchymal stem cell culture medium was removed, and hMSCs were either incubated for 30 min in chondrocyte differentiation medium containing TGFβ (R&D Systems, Cat No CCM005 and CCM006) (primed condition) or maintained in complete mesenchymal stem cell culture medium for 30 min.
hMSCs were collected, washed in PBS, and incubated in 500 μL of 10 μM Compound 4 or 20 in PBS for 20 min. Cells were washed in PBS and counted. 5×10^5 cells were placed in a 15 mL tube. The cells were centrifuged at 500 g for 7 min, and either 500 μL of maintenance medium (Lonza, Cat No PT-3238) or chondrocyte differentiation medium was added gently. The medium was changed every 2 to 3 days for three weeks, maintaining the 500 μL volume.
After three weeks, the medium was removed, and cell pellets were fixed in 500 μL of a 4% paraformaldehyde (PFA) in PBS solution for 20 min at room temperature. The solution was removed, and 500 μL of a 4% PFA, 15% sucrose in PBS was added, and the mixture was left overnight. The solution was removed, and 500 μL of a 4% PFA, 30% sucrose in PBS was added, then the mixture was left overnight or until the pellet was in the bottom of the tube. The pellet culture was frozen in TISSUE-TEK® O.C.T. compound (Cat No 4583), and 5 μm cuts were made. The slices were fixed on a positive charged slide (Cell Path, Cat No MDB-0102-54A). A hydrophobic pen was used to draw a line around the cuts on the slide.
100-300 μL of blocking solution (1% BSA, 0.3% TRITON® X-100 in PBS) was added on top of the slices which were left for 1 h at RT. The blocking solution was extracted with a micropipette. Primary antibody (goat anti-aggrecan G1-IgD-G2 domain, R&D systems, Cat No AF1220) was diluted 1:20 in blocking solution, and 100-200 μL of this solution was added on top of the slices. The slides were left at 4° C. overnight in a humidified box. The primary antibody solutions were removed, and the slices were washed 3 times with 1% BSA in PBS for 5 min. The lines were redrawn around the slices with the hydrophobic pen. From the incubation with the secondary antibody and on, the samples were kept in the dark to avoid degrading the fluorophore.
The secondary antibodies were diluted 1:100 in blocking solution. 100-200 μL of the secondary antibody solution (donkey anti-goat IgG Alexa fluor 488, Invitrogen, Cat No A11055) was added to the slices. The slices were incubated for 1 h at RT. The slices were washed 3 times with 1% BSA in PBS for 5 min. The lines were redrawn around the slices with the hydrophobic pen.
Slices were stained with 100-200 μL of a 1:2000 dilution of DAPI in PBS for 5 min at RT. The DAPI was removed, and the slices were washed 3 times with PBS for 5 min, then washed a 4th time with distilled water for another 5 min. The slides were left to dry. 30 μL of Fluorescent Mounting Medium was added, and then the slices were covered with a coverslip.

The test system of assay [3] is human MSCs. As to the kind of experiment: Adherence of human MSCs to rabbit dorsal femoral condyle explants. It is filed as cell-based. The conditions noted are these: photomicrographs, FIG. 6A.
For assay [4], the system named is rabbit dorsal femoral condyle explants. The assay is described as follows: Binding to and staining of rabbit dorsal femoral condyle explants. The conditions noted are these: photomicrographs, FIGS. 5A-B.
For assay [5] the test system is unchanged. As to the kind of experiment: Binding to rabbit dorsal femoral condyle explants (fluorescence staining). The conditions noted are these: 100 μM in PBS, 30 min; 530/600 nm; FIGS. 5A, 5B. The procedure:
Rabbit dorsal femoral condyle explants were incubated with PBS or 100 μM Compound 4 or Compound 20 in PBS for 30 min. Explants were washed twice in excess PBS. Staining of explants was determined using the 530/600 nm filter set on the Molecular Imaging Gel Logic system.

Data on two molecules can be found in patent US20170119907A1, “Targeted Therapeutics” (MEDIVATION TECHNOLOGIES, INC., priority 2014, published 2017).

With `Cc1cc2nc3cc(C)c(NCCCCCCCCNc4cc5c(cc4C)nc4cc(C)c(N)cc4[n+]5-c4ccccc4)cc3[n+](-c3ccccc3)c2cc1N.[Cl-].[Cl-]` [Compound 4, 7,7′-(octane-1,8-diylbis(azanediyl))bis(3-amino-2,8-dimethyl-5-phenylphenazin-5-ium) chloride], the “Adherence of calcein-labeled Raji cells to explants” value in assay [1] is recorded as “promoted adherence”. Moreover, the “ECM area (Aggrecan stain)” value in assay [2] (Priming +) was found to be 1.41; in assay [2] (Priming −), 0.74. Besides, the “Differentiation of hMSCs to chondrocytes (in words)” value in assay [2] is “induced high levels of differentiation”. Besides, the “adherence of human MSCs to rabbit dorsal femoral condyle explants” value in assay [3] is given as “promote adherence”. In addition, the “binding to and staining of rabbit dorsal femoral condyle explants” value in assay [4] is “bind to and stain”. For the same molecule, the “Binding to rabbit dorsal femoral condyle explants (fluorescence)” value in assay [5] is “strong fluorescence”.
Consider `Cc1cc2nc3cc(C)c(NCCCCCCNC(=O)c4ccc(-c5ccc(C(=O)NCCCCCCNc6cc7c(cc6C)nc6cc(C)c(N)cc6[n+]7-c6ccccc6)cc5)cc4)cc3[n+](-c3ccccc3)c2cc1N.[Cl-].[Cl-]` [Compound 20, (3-amino-7-{[6-({4-[4-({6-[(7-amino-5-chloranuide-2,8-dimethyl-5-phenyl-5λ^6,10-phenazin-5-ylium-3-yl)amino]hexyl}carbamoyl)phenyl]phenyl}formamido)hexyl]amino}-2,8-dimethyl-5-phenyl-5λ^6,10-phenazin-5-ylium-5-e)chloranuide], for which the “Adherence of calcein-labeled Raji cells to explants” value in assay [1] is “promoted adherence”. For the same molecule, the “ECM area (Aggrecan stain)” value is 0.97 in assay [2] (Priming +) and 0.74 in assay [2] (Priming −). Besides, in assay [2], the “Differentiation of hMSCs to chondrocytes (in words)” value is given as “induced high levels of differentiation”. In addition, the “adherence of human MSCs to rabbit dorsal femoral condyle explants” value in assay [3] is “promote adherence”. For the same molecule, the “binding to and staining of rabbit dorsal femoral condyle explants” value in assay [4] is “bind to and stain”. Further, in assay [5], the “Binding to rabbit dorsal femoral condyle explants (fluorescence)” value is listed as “strong fluorescence”.
